According to patent US20120129875A1, “SUBSTITUTED QUINAZOLINES AS FUNGICIDES” (SYNGENTA CROP PROTECTION, LLC, priority 2009, published 2012):

How the values were obtained:
Format in all cases: in vivo
Alternaria solani = Alternaria solani / tomato / preventative (Alternaria on tomato); settings: tomato plants cv. Roter Gnom, inoculated two days after application, vs untreated control, read-out: disease control
Procedure: (§1) Alternaria solani/Tomato/Preventative (Alternaria on Tomato) 4-week old tomato plants cv. Roter Gnom are treated with the formulated test compound in a spray chamber. The test plants are inoculated by spraying them with a spore suspension two days after application. The inoculated test plants are incubated at 22/18° C. (day/night) and 95% rh in a greenhouse and the percentage leaf area covered by disease is assessed when an appropriate level of disease appears on untreated check plants (5-7 days after application).

[1] = test system: Botryotinia fuckeliana (Botrytis cinerea); assay: Botryotinia fuckeliana (Botrytis cinerea) / tomato / preventative (Botrytis on tomato); settings: tomato plants cv. Roter Gnom, inoculated two days after application, vs untreated control, read-out: disease control
Procedure: as §1, with “Botryotinia fuckeliana (Botrytis cinerea)/Tomato/Preventative (Botrytis” for “Alternaria solani/Tomato/Preventative (Alternaria”, “20°” for “22/18°”, “C.” for “C. (day/night)”, “(5-6” for “(5-7”

[2] = test system: Erysiphe necator (Uncinula necator); assay: Erysiphe necator (Uncinula necator) / grape / preventative (powdery mildew on grape); settings: grape seedlings cv. Gutedel, inoculated 1 day after application, vs untreated control, read-out: disease control
Procedure: Erysiphe necator (Uncinula necator)/Grape/Preventative (Powdery Mildew on Grape) 5-week old grape seedlings cv. Gutedel are treated with the formulated test compound in a spray chamber. The test plants are inoculated by shaking plants infected with grape powdery mildew above them 1 day after application. The inoculated test plants are incubated at 24/22° C. (day/night) and 70% rh under a light regime of 14/10 h (light/dark) and the percentage leaf area covered by disease is assessed when an appropriate level of disease appears on untreated check plants (7-9 days after application).

[3] = test system: Mycosphaerella arachidis (Cercospora arachidicola); assay: Mycosphaerella arachidis (Cercospora arachidicola) / peanut / preventative; settings: peanut plants cv. Georgia Green, inoculated one day after application, vs untreated control, read-out: disease control
Procedure: Mycosphaerella arachidis (Cercospora arachidicola)/Peanut/Preventative 3-week old peanut plants cv. Georgia Green are treated with the formulated test compound in a spray chamber. The test plants are inoculated by spraying them with a spore suspension on their lower leaf surface one day after application. After an incubation period of 4 days under a plastic hood at 23° C. and 100% rh, the test plants are kept at 23° C./20° C. (day/night) and 70% rh in a greenhouse. The percentage leaf area covered by disease is assessed when an appropriate level of disease appears on untreated check plants (12-14 days after application).

[4] = test system: Mycosphaerella graminicola (Septoria tritici); assay: Mycosphaerella graminicola (Septoria tritici) / wheat / preventative (Septoria tritici leaf spot on wheat); settings: Zymoseptoria tritici, wheat plants cv. Riband, inoculated one day after application, vs untreated control, read-out: disease control
Procedure: Mycosphaerella graminicola (Septoria tritici)/Wheat/Preventative (Septoria tritici Leaf Spot on Wheat) 2-week old wheat plants cv. Riband are treated with the formulated test compound in a spray chamber. The test plants are inoculated by spraying a spore suspension on them one day after application. After an incubation period of 1 day at 22° C./21° C. (day/night) and 95% rh, the test plants are kept at 22° C./21° C. (day/night) and 70% rh in a greenhouse. The percentage leaf area covered by disease is assessed when an appropriate level of disease appears on untreated check plants (16-19 days after application).

[5] = test system: Pyrenophora teres (Helminthosporium teres); assay: Pyrenophora teres (Helminthosporium teres) / barley / preventative (net blotch on barley); settings: barley plants cv. Regina, inoculated 2 days after application, vs untreated control, read-out: disease control
Procedure: Pyrenophora teres (Helminthosporium teres)/Barley/Preventative (Net Blotch on Barley) 1-week old barley plants cv. Regina are treated with the formulated test compound in a spray chamber. The test plants are inoculated by spraying them with a spore suspension 2 days after application. The inoculated test plants are incubated at 20° C. and 95% rh and the percentage leaf area covered by disease is assessed when an appropriate level of disease appears on untreated check plants (5-7 days after application).

Plasmopara viticola = Plasmopara viticola / grape / preventative (grape downy mildew); settings: grape seedlings cv. Gutedel, inoculated one day after application, vs untreated control, read-out: disease control
Procedure: Plasmopara viticola/Grape/Preventative (Grape Downy Mildew)
5-week old grape seedlings cv. Gutedel are treated with the formulated test compound in a spray chamber. The test plants are inoculated by spraying a sporangia suspension on their lower leaf surface one day after application. The inoculated test plants are incubated at 22° C. and 100% rh in a greenhouse and the percentage leaf area covered by disease is assessed when an appropriate level of disease appears on untreated check plants (6-8 days after application).

[6] = test system: Phaeosphaeria nodorum (Septoria nodorum); assay: Phaeosphaeria nodorum (Septoria nodorum) / wheat / leaf disc preventative (glume blotch); settings: Parastagonospora nodorum, foliar, wheat leaf segments cv. Kanzler on agar, inoculated 2 days after application, vs untreated control, read-out: disease control
Procedure: Phaeosphaeria nodorum (Septoria nodorum)/Wheat/Leaf Disc Preventative (Glume Blotch) Wheat leaf segments cv. Kanzler are placed on agar in a multiwell plate (24-well format) and sprayed with the formulated test compound diluted in water. The leaf disks are inoculated with a spore suspension of the fungus 2 days after application. The inoculated test leaf disks are incubated at 20° C. and 75% rh under a light regime of 12 h light/12 h darkness in a climate cabinet and the activity of a compound is assessed as percent disease control compared to untreated when an appropriate level of disease damage appears in untreated check leaf disks (5-7 days after application).

Measured: pest or weed control at 200 ppm

Cc1cccc(Cc2cccc(-c3ncc4ccccc4n3)n2)c1F [6/12]
not listed: Plasmopara viticola | [6]
≥ 80%: all other assays above

Cc1ccccc1Cc1cccc(-c2ncc3ccccc3n2)n1 [6/19]
≥ 80%: Alternaria solani | [4] | Plasmopara viticola | [5]

COc1ccc(Cl)cc1-c1cccc(-c2ncc3ccccc3n2)n1 [2/68]
≥ 80%: Alternaria solani | [2] | Plasmopara viticola

Clc1ccccc1Cc1cccc(-c2ncc3ccccc3n2)n1 [6/16]
not listed: [3] | [6]
≥ 80%: all other assays above

Cc1ccc(-c2nc(-c3ncc4ccccc4n3)ccc2C)cc1F [3/94]
≥ 80%: Alternaria solani | [1] | [4] | Plasmopara viticola | [5]

Cc1ccc(C)c(-c2cccc(-c3ncc4ccccc4n3)n2)c1 [2/54]
≥ 80%: Alternaria solani | [2] | [3] | Plasmopara viticola | [5]

c1ccc(-c2cccc(-c3ncc4ccccc4n3)n2)cc1 [2/1]
≥ 80%: [1] | [3]

Cc1cccc(-c2ncc3ccccc3n2)n1 [10/4]
≥ 80%: [2] | [3]

Cc1nc(-c2cccc(Cc3ccccc3)n2)nc2ccccc12 [12/6]
≥ 80%: Alternaria solani | [2] | [6]

Clc1ccc(Cc2cccc(-c3ncc4ccccc4n3)n2)cc1 [6/18]
≥ 80%: Alternaria solani | [4] | [5]

Cc1ccc(-c2ncc3ccccc3n2)nc1-c1cccc(F)c1F [3/38]
not listed: [4] | [6]
≥ 80%: all other assays above

Cc1ccc(-c2ncc3ccccc3n2)nc1Oc1ccc(F)cc1 [5/3]
≥ 80%: [3] | Plasmopara viticola | [5]

Cc1ccc(-c2nc(C)c3ccccc3n2)nc1-c1ccccc1 [11/8, 4-Methyl-2-(5-methyl-6-phenyl-pyridin-2-yl)-quinazoline]
not listed: [1] | [6]
≥ 80%: all other assays above

Cc1ccc(-c2ncc3ccccc3n2)nc1-c1ccccc1F [3/82]
≥ 80%: Alternaria solani | [4] | Plasmopara viticola | [5]

Cc1ccc(F)c(-c2nc(-c3ncc4ccccc4n3)ccc2C)c1 [3/9]
not listed: [2] | [6]
≥ 80%: all other assays above

CCc1ccccc1-c1cccc(-c2ncc3ccccc3n2)n1 [2/37]
≥ 80%: Alternaria solani | [1] | [3] | Plasmopara viticola

Cc1ccc(-c2ncc3ccccc3n2)nc1-c1ccc(Cl)cc1 [3/74]
≥ 80%: Alternaria solani | [4] | Plasmopara viticola | [5]

COc1ccc(-c2nc(-c3ncc4ccccc4n3)ccc2C)c(C)c1 [3/53]
not listed: [4] | [6]
≥ 80%: all other assays above

Cc1ccc(-c2ncc3ccccc3n2)nc1Cc1cccc(C)c1F [7/7]
≥ 80%: Alternaria solani | [2] | Plasmopara viticola | [5]

Cc1ccc(F)cc1-c1nc(-c2ncc3ccccc3n2)ccc1C [3/26]
≥ 80%: Alternaria solani | [1] | [3] | Plasmopara viticola | [5]

c1cc(-c2ncc3ccccc3n2)nc(C2CC2)c1 [10/7]
≥ 80%: [1] | [2] | [3] | Plasmopara viticola

Cc1ccc(-c2ncc3ccccc3n2)nc1-c1ccc(F)cc1F [3/83]
≥ 80%: Alternaria solani | [1] | [4] | Plasmopara viticola | [5]

COc1ccc(-c2nc(-c3ncc4ccccc4n3)ccc2C)cc1C [3/93]
≥ 80%: Alternaria solani | [4] | Plasmopara viticola | [5]

Cc1ccc(-c2ncc3ccccc3n2)nc1-c1ccc(F)cc1O [3/101]
≥ 80%: Alternaria solani | [1] | [4] | Plasmopara viticola | [5]

Cc1ccc(-c2nc(-c3ncc4ccccc4n3)ccc2C)cc1Cl [3/21]
≥ 80%: Alternaria solani | [1] | [2] | Plasmopara viticola

Cc1ccc(Cc2cccc(-c3ncc4ccccc4n3)n2)cc1 [6/10]
≥ 80%: [4]

COc1cccc(Cc2cccc(-c3ncc4ccccc4n3)n2)c1 [6/15]
≥ 80%: [4] | Plasmopara viticola | [5]

c1cc(-c2ncc3ccccc3n2)nc(-c2cccc3ccccc23)c1 [2/6]
≥ 80%: Alternaria solani | [1] | [3] | Plasmopara viticola | [5]

Cc1ccc(-c2ncc3ccccc3n2)nc1C#CC1CC1 [8/1]
≥ 80%: Alternaria solani | [1] | [3] | Plasmopara viticola

Clc1ccccc1-c1cccc(-c2ncc3ccccc3n2)n1 [2/13]
≥ 80%: Alternaria solani | [1] | [3] | Plasmopara viticola
